From patent publication US20070142462A1, “Method of Treating Cancer” (The University of Utah, priority 2000, published 2007) come the findings set out here.

What all share (assay type): cell-based, human
One test has as its system GRO-α. Nature of the test: GRO-α ELISA in culture medium. The note with it: M1619; dicumarol 24 hours. As for the experimental part:
To study the impact of inhibiting NF-κB activation with antioxidants, cellular expression of the autocrine growth factor GRO-α was studied in near confluent monolayers of M1619 cells grown in 24-well plates. Cells were either treated with fresh complete medium or fresh medium containing 25 μM ebselen. After 24 hours, supernatants were harvested, microcentrifuged to remove cellular debris and frozen at −20° C. until GRO-α measurement as outlined below.
Measurement of GRO-α Expression. GRO-α was measured in culture medium from untreated and ebselen treated cells using a commercial ELISA purchased from R&D Systems, Minneapolis, Minn. This assay could not be used to detect GRO-α production by catalase treated cells because of interference in the peroxidase-based ELISA by catalase in the cell supernatant.
[…]. After 24 hours, GRO-α concentration was measured in media.
In general terms: An ELISA detects its analyte on a solid surface through an enzyme-linked reagent.

In a further test the test system is p65 component of NF-κB. Briefly: Immunohistochemical localization of p65 in M1619 cells. The following applies: 24 hours, catalase 3,000 U/ml, apocynin 150 μg/ml, dicumarol 250 μM. Here is the method:
The effect of antioxidants on nuclear activation of NF-κB was studied by incubating near confluent (70%) cell cultures with antioxidant treatments for 1-48 hours. Nuclear protein was harvested, and EMSAs were performed using DNA consensus binding sequences, or nuclear translocation of the p65 component of NF-κB was studied by immunoperoxidase staining, as outlined below.
Immunohistochemical Localization of NF-κB. Cells grown on sterile coverslips and treated with catalase 3,000 U/ml, apocynin 150 μg/ml, or DPBS or DMSO vehicles for 24 h were fixed for 20 min on ice with 4% paraformaldehyde in DPBS with protease inhibitors, PI [Sigma protease inhibitor cocktail, 10 μl/ml, containing 4-(2-aminoethyl)benzensulfonyl fluoride (AEBSF), pepstatin A, trans-epoxysuccinyl-L-leucylamindo-(guanidino)butane (E-64), bestatin, leupeptin and aprotinin]. Cells were permeabilized by treating for 2 min with 0.1% NP-40 in DPBS/PI, washed once with cold DPBS and fixed as before for 10 min. Coverslips were incubated in 3% hydrogen peroxide for 30 min to suppress any remaining peroxidase, and washed three times in cold DPBS. The permeabilized and fixed cells were blocked for 2 hours with 2% BSA in DPBS on ice and incubated overnight at 4° C. with 1 μg/ml of anti-p65 antibody (Santa Cruz) diluted in 0.1% BSA/DPBS. Unbound anti-p65 was washed away with 2% BSA/DPBS and bound antibody was stained by incubation with biotinylated goat anti-rabbit immunoglobulin diluted 1:50 in 0.1% BSA/DPBS for 45 min on ice. Excess secondary antibody was washed away by 3 washes with 2% BSA/DPBS on ice. After washing, the cells were incubated with a streptavidin-biotin-peroxidase complex at room temperature for 1 hr, washed again, and incubated in 0.03% wt/vol 3-3′diaminobenzidine with 0.003% vol/vol hydrogen peroxide until a brown reaction product could be seen. Cells were then counterstained with eosin and mounted on glass slides before viewing under light microscopy. […]

In another test the test system is M1619 cells. Briefly: Ferricytochrome c reduction (O2− generation) by M1619 cells. The following applies: 160 μM ferricytochrome c; capsaicin 100 μM; dicumarol 250 μM pre-treatment 60 min; other inhibitors as. As for the experimental part: Measurement of Reactive Oxygen Species. Superoxide (O2^−) generation was measured by the technique of superoxide dismutase (SOD) inhibitable reduction of ferricytochrome c, employing a modification allowing absorbance reading with an automatic enzyme immunoassay reader. See Friovich, I. in Handbook of Methods for Oxygen Radical Research (Greenwald, R. A., ed.), pp 121-122, CRC Press, Boca Raton, Fla., 1985; Pick, E. et al. J. Immunol. Methods 46:211-226 (1981). Confluent cells grown on 24-well plates were washed with DPBS, and incubated in 5% CO2/air at 37° C. with 160 μM ferricytochrome c in total volume of 550 μl of sodium bicarbonate-containing Krebs-Heinseleit buffer, or Hanks Balanced Salt Solution (HBSS), with and without copper-zinc SOD (1,000 units/ml). See Nozik-Grayck, et al., Am J. Physiol. 273 (17):L296-L304 (1997). The absorbance of each well was measured at 550 nm initially and 3-24 hours later using an ELx800 UV automated microplate reader (Biotek Instruments, Highland Park, Vt.). Monolayers were then washed with DPBS, and cell protein was measured using the BCA protein assay (Pierce). O2^− generation, normalized to cell protein, was computed from the Beer-Lambert relationship, as the quotient of SOD-inhibitable increase absorbance over time divided by the difference between the molar extinction coefficients for ferricytochrome c and ferrocytochrome c (ΔEM=2.1×10^4 M^−1 cm^−1). See Bashford, in Spectrophotometry & Spectrofluorimetry. A Practical Approach (Harris, D. A., and Bashford, C. L., eds) pp. 1-22, IRL Press, Washington, D.C., 1987; Friovich, I. in Handbook of Methods for Oxygen Radical Research (Greenwald, R. A., ed) pp 121-122, CRC Press, Boca Raton, Fla., 1985. […].
A. Capsaicin inhibits ferricytochrome c reduction. M1619 cells grown on 24-well plates were washed with DPBS, and incubated in 5% CO2/air at 37° C. with 160 μM ferricytochrome c in total volume of 550 μl of HBSS with or without the quinone analog capsaicin (100 μM final concentration) added in 5 μl/ml of ethanol. The absorbance of each well was measured at 550 nm initially and 3 hours later using an ELx800 UV automated microplate reader (Biotek Instruments, Highland Park, Vt.). The results are illustrated in FIG. 8A.
. […]. The results are illustrated in FIG. 9A.

In the case of `O=c1oc2ccccc2c(O)c1Cc1c(O)c2ccccc2oc1=O` [Dicumarol, 3,3′-methylenebis[4-hydroxy-2H-1-benzopyran-2-one]], the GRO-α protein expression entry in the test on GRO-α is reported as “dramatic reduction”. Besides, the “anti-p65 staining in nuclei (nuclear translocation of NF-κB)” value in the test with p65 component of NF-κB was “little staining in nuclei”. Besides, the “ferricytochrome c reduction by M1619 cells” value in the test on M1619 cells is listed as “significantly decreased”.
